Results as given in ChEMBL document CHEMBL1201862, “PubChem BioAssay data set” (2004).
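Step 1: Grow cells in 96-well plates. Step 2: Expose to compound for 48 hours at 5 concentrations. Step 3: Interpolate endpoints linearly; if unreached, use highest concentration. GI50 is the concentration that inhibits growth by half.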 Activity calls are given as the source filed them. No stated cut-off is given here; in the data, active = GI50 up to about 1.1 µM and inactive = higher.

What was measured:
Experiment in all cases: DTP human tumour cell line panel, 48 h
M14 = tested on: M14
DU-145 = tested on: DU-145
SN12C = tested on: SN12C
SK-MEL-2 = tested on: SK-MEL-2
SNB-75 = tested on: SNB-75
SK-MEL-5 = tested on: SK-MEL-5
NCI-H522 = tested on: NCI-H522
ACHN = tested on: ACHN
LOX IMVI = tested on: LOX IMVI
SK-OV-3 = tested on: SK-OV-3
786-0 = tested on: 786-0
U-251 = tested on: U-251
IGROV-1 = tested on: IGROV-1
SR = tested on: SR
NCI-H460 = tested on: NCI-H460
CCRF-CEM = tested on: CCRF-CEM
UACC-62 = tested on: UACC-62
A549 = tested on: A549
SK-MEL-28 = tested on: SK-MEL-28
COLO 205 = tested on: COLO 205
OVCAR-5 = tested on: OVCAR-5
HCT-116 = tested on: HCT-116
RXF 393 = tested on: RXF 393
HCT-15 = tested on: HCT-15
SF-539 = tested on: SF-539
MDA-N = tested on: MDA-N
HOP-92 = tested on: HOP-92
A498 = tested on: A498
CAKI-1 = tested on: CAKI-1
UACC-257 = tested on: UACC-257
KM12 = tested on: KM12
BT-549 = tested on: BT-549
MDA-MB-435 = tested on: MDA-MB-435
PC-3 = tested on: PC-3
NCI/ADR-RES = tested on: NCI/ADR-RES
OVCAR-4 = tested on: OVCAR-4
TK-10 = tested on: TK-10
Malme-3M = tested on: Malme-3M
HT-29 = tested on: HT-29
HOP-62 = tested on: HOP-62
MDA-MB-231 = tested on: MDA-MB-231
HL-60 = tested on: HL-60
SNB-19 = tested on: SNB-19
MCF7 = tested on: MCF7
NCI-H23 = tested on: NCI-H23
UO-31 = tested on: UO-31
SW-620 = tested on: SW-620
OVCAR-3 = tested on: OVCAR-3
SF-295 = tested on: SF-295
HCC 2998 = tested on: HCC 2998
Hs-578T = tested on: Hs-578T
SF-268 = tested on: SF-268
T47D = tested on: T47D
K562 = tested on: K562
EKVX = tested on: EKVX
RPMI-8226 = tested on: RPMI-8226
NCI-H226 = tested on: NCI-H226
MOLT-4 = tested on: MOLT-4
OVCAR-8 = tested on: OVCAR-8

Structure (SMILES): CC1(C)N=C(N)N=C(N)N1c1cccc(Cl)c1
- GI50 (M14): 0.877 µM (active)
- GI50 (DU-145): 17.4 µM (inactive)
- GI50 (SN12C): 10.3 µM (inactive)
- GI50 (SK-MEL-2): > 100 µM (inactive)
- GI50 (SNB-75): 25.6 µM (inactive)
- GI50 (SK-MEL-5): 22.4 µM (inactive)
- GI50 (NCI-H522): 5.87 µM (inactive)
- GI50 (ACHN): 5.21 µM (inactive)
- GI50 (LOX IMVI): 2.54 µM (inactive)
- GI50 (SK-OV-3): > 100 µM (inactive)
- GI50 (786-0): 0.585 µM (active)
- GI50 (U-251): 1.36 µM (inactive)
- GI50 (IGROV-1): 4.93 µM (inactive)
- GI50 (SR): 1.73 µM (inactive)
- GI50 (NCI-H460): 1.43 µM (inactive)
- GI50 (CCRF-CEM): 3.76 µM (inactive)
- GI50 (UACC-62): 2.88 µM (inactive)
- GI50 (A549): 2.41 µM (inactive)
- GI50 (SK-MEL-28): > 100 µM (inactive)
- GI50 (COLO 205): 5.35 µM (inactive)
- GI50 (OVCAR-5): 9.12 µM (inactive)
- GI50 (HCT-116): 0.461 µM (active)
- GI50 (RXF 393): > 100 µM (inactive)
- GI50 (HCT-15): 10.5 µM
- GI50 (SF-539): 4.66 µM (inactive)
- GI50 (MDA-N): 0.49 µM (active)
- GI50 (HOP-92): 42.5 µM (inactive)
- GI50 (A498): > 100 µM (inactive)
- GI50 (CAKI-1): > 100 µM (inactive)
- GI50 (UACC-257): 5.56 µM (inactive)
- GI50 (KM12): 7.98 µM (inactive)
- GI50 (BT-549): 6.71 µM (inactive)
- GI50 (MDA-MB-435): 0.604 µM (active)
- GI50 (PC-3): > 100 µM (inactive)
- GI50 (NCI/ADR-RES): 0.681 µM (active)
- GI50 (OVCAR-4): > 100 µM (inactive)
- GI50 (TK-10): 91.2 µM (inactive)
- GI50 (Malme-3M): 9.82 µM (inactive)
- GI50 (HT-29): 0.785 µM (active)
- GI50 (HOP-62): 4.85 µM (inactive)
- GI50 (MDA-MB-231): 61.8 µM (inactive)
- GI50 (HL-60): > 100 µM (inactive)
- GI50 (SNB-19): > 100 µM (inactive)
- GI50 (MCF7): 4.6 µM (inactive)
- GI50 (NCI-H23): 3.22 µM (inactive)
- GI50 (UO-31): 15.5 µM (inactive)
- GI50 (SW-620): > 100 µM (inactive)
- GI50 (OVCAR-3): 22.4 µM (inactive)
- GI50 (SF-295): 1.83 µM (inactive)
- GI50 (HCC 2998): 14 µM (inactive)
- GI50 (Hs-578T): > 100 µM (inactive)
- GI50 (SF-268): 1.14 µM (inactive)
- GI50 (T47D): > 100 µM (inactive)
- GI50 (K562): 3.66 µM (inactive)
- GI50 (EKVX): > 100 µM (inactive)

Structure (SMILES): Cc1ncc([N+](=O)[O-])n1CCNS(=O)(=O)CCCn1ccnc1[N+](=O)[O-]
- GI50 (M14): > 100 µM (inactive)
- GI50 (DU-145): > 100 µM (inactive)
- GI50 (SN12C): > 100 µM (inactive)
- GI50 (SK-MEL-2): > 100 µM (inactive)
- GI50 (SNB-75): > 100 µM (inactive)
- GI50 (SK-MEL-5): > 100 µM (inactive)
- GI50 (RPMI-8226): > 100 µM (inactive)
- GI50 (NCI-H522): > 100 µM (inactive)
- GI50 (ACHN): > 100 µM (inactive)
- GI50 (LOX IMVI): > 100 µM (inactive)
- GI50 (SK-OV-3): > 100 µM (inactive)
- GI50 (786-0): > 100 µM (inactive)
- GI50 (U-251): > 100 µM (inactive)
- GI50 (IGROV-1): > 100 µM (inactive)
- GI50 (SR): > 100 µM (inactive)
- GI50 (NCI-H460): > 100 µM (inactive)
- GI50 (CCRF-CEM): > 100 µM (inactive)
- GI50 (UACC-62): > 100 µM (inactive)
- GI50 (A549): > 100 µM (inactive)
- GI50 (SK-MEL-28): > 100 µM (inactive)
- GI50 (COLO 205): > 100 µM (inactive)
- GI50 (OVCAR-5): > 100 µM (inactive)
- GI50 (HCT-116): > 100 µM (inactive)
- GI50 (RXF 393): > 100 µM (inactive)
- GI50 (HCT-15): > 100 µM
- GI50 (SF-539): > 100 µM (inactive)
- GI50 (MDA-N): > 100 µM (inactive)
- GI50 (HOP-92): > 100 µM (inactive)
- GI50 (A498): > 100 µM (inactive)
- GI50 (CAKI-1): > 100 µM (inactive)
- GI50 (UACC-257): > 100 µM (inactive)
- GI50 (KM12): > 100 µM (inactive)
- GI50 (BT-549): > 100 µM (inactive)
- GI50 (MDA-MB-435): > 100 µM (inactive)
- GI50 (PC-3): > 100 µM (inactive)
- GI50 (NCI/ADR-RES): > 100 µM (inactive)
- GI50 (OVCAR-4): > 100 µM (inactive)
- GI50 (TK-10): > 100 µM (inactive)
- GI50 (Malme-3M): > 100 µM (inactive)
- GI50 (HT-29): > 100 µM (inactive)
- GI50 (HOP-62): > 100 µM (inactive)
- GI50 (MDA-MB-231): > 100 µM (inactive)
- GI50 (HL-60): > 100 µM (inactive)
- GI50 (MCF7): > 100 µM (inactive)
- GI50 (NCI-H23): > 100 µM (inactive)
- GI50 (UO-31): > 100 µM (inactive)
- GI50 (SW-620): > 100 µM (inactive)
- GI50 (OVCAR-3): > 100 µM (inactive)
- GI50 (SF-295): > 100 µM (inactive)
- GI50 (NCI-H226): > 100 µM (inactive)
- GI50 (MOLT-4): > 100 µM (inactive)
- GI50 (OVCAR-8): > 100 µM (inactive)
- GI50 (Hs-578T): > 100 µM (inactive)
- GI50 (SF-268): > 100 µM (inactive)
- GI50 (T47D): > 100 µM (inactive)
- GI50 (K562): > 100 µM (inactive)
- GI50 (EKVX): > 100 µM (inactive)
